Results reported in publication PMC9532703, “A novel small molecule RK-019 inhibits FGFR2-amplification gastric cancer cell proliferation and induces apoptosis in vitro and in vivo” (Frontiers in Pharmacology, 2022).

Key:
Assay in all cases: Kinase selectivity panel
Type in all cases: biochemical
[1] = target: T1, ATM(h) (Homo sapiens, UniProt Q13315); conditions: read-out: Inhibition(%) @ 1 µM RK-019
T1 construct: purchased Eurofins Discovery Services (KinaseProfiler)
Summary of the method: (§1)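 ATP-site competition binding, in vitro; recombinant human kinase, single concentration 1 µM; % inhibition read-out.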

[2] = target: T2, Arg(h) (Homo sapiens, UniProt P42684); conditions: read-out: Inhibition(%) @ 1 µM RK-019
T2 construct: purchased Eurofins Discovery Services (KinaseProfiler)
Summary of the method: as §1

[3] = target: T3, BMPR2(h) (Homo sapiens, UniProt Q13873); conditions: read-out: Inhibition(%) @ 1 µM RK-019
T3 construct: purchased Eurofins Discovery Services (KinaseProfiler)
Summary of the method: as §1

[4] = target: T4, BTK(R28H)(h) (Homo sapiens, UniProt Q06187, R28H); conditions: read-out: Inhibition(%) @ 1 µM RK-019
T4 construct: purchased Eurofins Discovery Services (KinaseProfiler)
Summary of the method: as §1

[5] = target: T5, CDK7/cyclinH/MAT1(h) (Homo sapiens, UniProt P50613); conditions: read-out: Inhibition(%) @ 1 µM RK-019
T5 construct: purchased Eurofins Discovery Services (KinaseProfiler)
Summary of the method: as §1

[6] = target: T6, CaMKIV(h) (Homo sapiens, UniProt Q16566); conditions: read-out: Inhibition(%) @ 1 µM RK-019
T6 construct: purchased Eurofins Discovery Services (KinaseProfiler)
Summary of the method: as §1

[7] = target: T7, EphA3(h) (Homo sapiens, UniProt P29320); conditions: read-out: Inhibition(%) @ 1 µM RK-019
T7 construct: purchased Eurofins Discovery Services (KinaseProfiler)
Summary of the method: as §1

[8] = target: T8, EphA5(h) (Homo sapiens, UniProt P54756); conditions: read-out: Inhibition(%) @ 1 µM RK-019
T8 construct: purchased Eurofins Discovery Services (KinaseProfiler)
Summary of the method: as §1

[9] = target: T9, EphB4(h) (Homo sapiens, UniProt P54760); conditions: read-out: Inhibition(%) @ 1 µM RK-019
T9 construct: purchased Eurofins Discovery Services (KinaseProfiler)
Summary of the method: as §1

[10] = target: T10, FGFR4(h) (Homo sapiens, UniProt P22455)
T10 construct: purchased Eurofins Discovery Services (KinaseProfiler)
Summary of the method: as §1

[11] = target: T11, HRI(h) (Homo sapiens, UniProt Q9BQI3); conditions: read-out: Inhibition(%) @ 1 µM RK-019
T11 construct: purchased Eurofins Discovery Services (KinaseProfiler)
Summary of the method: as §1

[12] = target: T12, JAK3(h) (Homo sapiens, UniProt P52333); conditions: read-out: Inhibition(%) @ 1 µM RK-019
T12 construct: purchased Eurofins Discovery Services (KinaseProfiler)
Summary of the method: as §1

[13] = target: T13, JNK2α2(h) (Homo sapiens, UniProt P45984); conditions: read-out: Inhibition(%) @ 1 µM RK-019
T13 construct: purchased Eurofins Discovery Services (KinaseProfiler)
Summary of the method: as §1

[14] = target: T14, MAPK2(h) (Homo sapiens, UniProt P28482); conditions: read-out: Inhibition(%) @ 1 µM RK-019
T14 construct: purchased Eurofins Discovery Services (KinaseProfiler)
Summary of the method: as §1

[15] = target: T15, MOK(h) (Homo sapiens, UniProt Q9UQ07); conditions: read-out: Inhibition(%) @ 1 µM RK-019
T15 construct: purchased Eurofins Discovery Services (KinaseProfiler)
Summary of the method: as §1

[16] = target: T16, MSSK1(h) (Homo sapiens, UniProt Q9UPE1); conditions: read-out: Inhibition(%) @ 1 µM RK-019
T16 construct: purchased Eurofins Discovery Services (KinaseProfiler)
Summary of the method: as §1

[17] = target: T17, Mnk2(h) (Homo sapiens, UniProt Q9HBH9); conditions: read-out: Inhibition(%) @ 1 µM RK-019
T17 construct: purchased Eurofins Discovery Services (KinaseProfiler)
Summary of the method: as §1

[18] = target: T18, PAK2(h) (Homo sapiens, UniProt Q13177); conditions: read-out: Inhibition(%) @ 1 µM RK-019
T18 construct: purchased Eurofins Discovery Services (KinaseProfiler)
Summary of the method: as §1

[19] = target: T19, PDGFRβ(h) (Homo sapiens, UniProt P09619); conditions: read-out: Inhibition(%) @ 1 µM RK-019
T19 construct: purchased Eurofins Discovery Services (KinaseProfiler)
Summary of the method: as §1

[20] = target: T20, PEK(h) (Homo sapiens, UniProt Q9NZJ5); conditions: read-out: Inhibition(%) @ 1 µM RK-019
T20 construct: purchased Eurofins Discovery Services (KinaseProfiler)
Summary of the method: as §1

[21] = target: T21, PI3 Kinase (p110a/p65a)(m) (Mus musculus, UniProt P42337); conditions: read-out: Inhibition(%) @ 1 µM RK-019
T21 construct: purchased Eurofins Discovery Services (KinaseProfiler)

[22] = target: T22, PIP5K1a(h) (Homo sapiens, UniProt Q99755); conditions: read-out: Inhibition(%) @ 1 µM RK-019
T22 construct: purchased Eurofins Discovery Services (KinaseProfiler)
Summary of the method: as §1

[23] = target: T23, PKAcβ(h) (Homo sapiens, UniProt P22694); conditions: read-out: Inhibition(%) @ 1 µM RK-019
T23 construct: purchased Eurofins Discovery Services (KinaseProfiler)
Summary of the method: as §1

[24] = target: T24, PKD3(h) (Homo sapiens, UniProt O94806); conditions: read-out: Inhibition(%) @ 1 µM RK-019
T24 construct: purchased Eurofins Discovery Services (KinaseProfiler)
Summary of the method: as §1

[25] = target: T25, PKR(h) (Homo sapiens, UniProt P19525); conditions: read-out: Inhibition(%) @ 1 µM RK-019
T25 construct: purchased Eurofins Discovery Services (KinaseProfiler)
Summary of the method: as §1

[26] = target: T26, PRK1(h) (Homo sapiens, UniProt Q16512); conditions: read-out: Inhibition(%) @ 1 µM RK-019
T26 construct: purchased Eurofins Discovery Services (KinaseProfiler)
Summary of the method: as §1

[27] = target: T27, SGK2(h) (Homo sapiens, UniProt Q9HBY8); conditions: read-out: Inhibition(%) @ 1 µM RK-019
T27 construct: purchased Eurofins Discovery Services (KinaseProfiler)
Summary of the method: as §1

[28] = target: T28, SNRK(h) (Homo sapiens, UniProt Q9NRH2); conditions: read-out: Inhibition(%) @ 1 µM RK-019
T28 construct: purchased Eurofins Discovery Services (KinaseProfiler)
Summary of the method: as §1

[29] = target: T29, SRMS(h) (Homo sapiens, UniProt Q9H3Y6); conditions: read-out: Inhibition(%) @ 1 µM RK-019
T29 construct: purchased Eurofins Discovery Services (KinaseProfiler)
Summary of the method: as §1

[30] = target: T30, STK32C(h) (Homo sapiens, UniProt Q86UX6); conditions: read-out: Inhibition(%) @ 1 µM RK-019
T30 construct: purchased Eurofins Discovery Services (KinaseProfiler)
Summary of the method: as §1

[31] = target: T31, STK33(h) (Homo sapiens, UniProt Q9BYT3); conditions: read-out: Inhibition(%) @ 1 µM RK-019
T31 construct: purchased Eurofins Discovery Services (KinaseProfiler)
Summary of the method: as §1

[32] = target: T32, TRB2(h) (Homo sapiens, UniProt Q92519); conditions: read-out: Inhibition(%) @ 1 µM RK-019
T32 construct: purchased Eurofins Discovery Services (KinaseProfiler)
Summary of the method: as §1

[33] = target: T33, TSSK4(h) (Homo sapiens, UniProt Q6SA08); conditions: read-out: Inhibition(%) @ 1 µM RK-019
T33 construct: purchased Eurofins Discovery Services (KinaseProfiler)
Summary of the method: as §1

[34] = target: T34, Tie2(Y897S)(h) (Homo sapiens, UniProt Q02763, Y897S); conditions: read-out: Inhibition(%) @ 1 µM RK-019
T34 construct: purchased Eurofins Discovery Services (KinaseProfiler)
Summary of the method: as §1

[35] = target: T35, WNK3(h) (Homo sapiens, UniProt Q9BYP7); conditions: read-out: Inhibition(%) @ 1 µM RK-019
T35 construct: purchased Eurofins Discovery Services (KinaseProfiler)
Summary of the method: as §1

[36] = target: T36, ZAP-70(h) (Homo sapiens, UniProt P43403); conditions: read-out: Inhibition(%) @ 1 µM RK-019
T36 construct: purchased Eurofins Discovery Services (KinaseProfiler)
Summary of the method: as §1

[37] = target: T37, ZIPK(h) (Homo sapiens, UniProt O43293); conditions: read-out: Inhibition(%) @ 1 µM RK-019
T37 construct: purchased Eurofins Discovery Services (KinaseProfiler)
Summary of the method: as §1

T10 sequence (P22455 22-802): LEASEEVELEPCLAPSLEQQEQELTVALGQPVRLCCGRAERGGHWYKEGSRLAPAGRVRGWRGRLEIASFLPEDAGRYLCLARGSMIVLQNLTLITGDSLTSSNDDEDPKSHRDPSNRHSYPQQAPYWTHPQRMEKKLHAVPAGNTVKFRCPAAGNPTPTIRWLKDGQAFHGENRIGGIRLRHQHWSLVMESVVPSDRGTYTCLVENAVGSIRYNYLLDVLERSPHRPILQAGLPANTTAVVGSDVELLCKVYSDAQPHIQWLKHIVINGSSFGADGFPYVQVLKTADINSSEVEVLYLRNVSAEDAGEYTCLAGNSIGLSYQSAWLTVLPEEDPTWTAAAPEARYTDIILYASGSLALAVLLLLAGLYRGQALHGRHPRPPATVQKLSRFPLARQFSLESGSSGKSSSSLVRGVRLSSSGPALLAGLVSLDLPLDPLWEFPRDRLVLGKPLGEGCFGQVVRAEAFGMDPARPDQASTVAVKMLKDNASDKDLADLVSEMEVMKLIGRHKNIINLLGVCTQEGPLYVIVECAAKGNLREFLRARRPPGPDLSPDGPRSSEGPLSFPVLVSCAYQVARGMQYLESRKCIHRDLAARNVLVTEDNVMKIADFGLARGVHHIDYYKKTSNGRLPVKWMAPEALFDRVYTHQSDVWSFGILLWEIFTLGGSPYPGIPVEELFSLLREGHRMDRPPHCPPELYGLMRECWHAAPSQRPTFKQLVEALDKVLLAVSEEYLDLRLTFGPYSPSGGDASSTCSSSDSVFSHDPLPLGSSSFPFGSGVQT
T33 sequence (Q6SA08 whole entry): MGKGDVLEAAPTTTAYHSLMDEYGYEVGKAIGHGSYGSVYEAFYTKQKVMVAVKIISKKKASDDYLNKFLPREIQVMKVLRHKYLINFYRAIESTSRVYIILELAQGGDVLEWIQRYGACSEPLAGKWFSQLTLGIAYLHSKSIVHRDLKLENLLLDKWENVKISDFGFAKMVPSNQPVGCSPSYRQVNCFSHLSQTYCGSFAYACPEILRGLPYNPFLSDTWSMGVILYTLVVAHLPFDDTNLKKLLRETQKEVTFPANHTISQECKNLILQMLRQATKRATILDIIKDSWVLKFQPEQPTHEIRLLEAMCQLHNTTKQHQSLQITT
T5 sequence (P50613 whole entry): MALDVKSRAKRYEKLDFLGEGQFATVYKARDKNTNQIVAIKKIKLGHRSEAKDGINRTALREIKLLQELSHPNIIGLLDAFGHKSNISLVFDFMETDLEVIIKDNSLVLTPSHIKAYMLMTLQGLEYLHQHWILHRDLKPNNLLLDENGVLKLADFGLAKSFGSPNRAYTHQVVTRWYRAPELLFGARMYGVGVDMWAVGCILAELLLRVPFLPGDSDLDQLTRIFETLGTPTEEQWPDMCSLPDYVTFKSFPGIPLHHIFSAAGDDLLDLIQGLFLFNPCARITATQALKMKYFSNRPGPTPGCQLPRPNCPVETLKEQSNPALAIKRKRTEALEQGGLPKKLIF
T5 sequence (P51946 whole entry partner): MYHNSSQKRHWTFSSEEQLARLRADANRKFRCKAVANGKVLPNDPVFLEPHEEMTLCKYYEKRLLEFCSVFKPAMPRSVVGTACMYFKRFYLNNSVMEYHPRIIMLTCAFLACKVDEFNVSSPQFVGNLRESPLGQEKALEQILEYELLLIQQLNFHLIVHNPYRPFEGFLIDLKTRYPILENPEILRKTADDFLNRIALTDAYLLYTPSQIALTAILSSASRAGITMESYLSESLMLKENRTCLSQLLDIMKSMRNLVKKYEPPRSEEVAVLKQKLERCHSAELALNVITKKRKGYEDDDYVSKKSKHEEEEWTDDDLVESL
T5 sequence (P51948 whole entry partner): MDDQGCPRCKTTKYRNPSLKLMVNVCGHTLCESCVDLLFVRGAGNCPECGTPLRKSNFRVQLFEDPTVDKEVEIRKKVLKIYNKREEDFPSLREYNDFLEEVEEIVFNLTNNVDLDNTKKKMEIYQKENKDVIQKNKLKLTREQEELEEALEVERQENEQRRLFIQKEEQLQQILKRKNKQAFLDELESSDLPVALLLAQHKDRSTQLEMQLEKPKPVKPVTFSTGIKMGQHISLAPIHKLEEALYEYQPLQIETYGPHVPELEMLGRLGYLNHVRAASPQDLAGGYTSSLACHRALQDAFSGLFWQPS
T14 sequence (P28482 whole entry): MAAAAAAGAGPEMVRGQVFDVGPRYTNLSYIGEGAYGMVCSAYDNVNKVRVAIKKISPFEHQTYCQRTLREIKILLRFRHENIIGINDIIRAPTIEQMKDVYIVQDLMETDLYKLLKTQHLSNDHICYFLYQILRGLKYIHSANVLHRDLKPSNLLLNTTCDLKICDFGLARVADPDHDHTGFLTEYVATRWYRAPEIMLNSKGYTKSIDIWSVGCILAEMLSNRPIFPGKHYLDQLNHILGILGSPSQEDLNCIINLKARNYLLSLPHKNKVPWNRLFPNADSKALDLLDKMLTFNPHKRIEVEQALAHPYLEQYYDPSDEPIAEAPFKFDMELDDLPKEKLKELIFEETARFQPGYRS
T22 sequence (Q99755 whole entry): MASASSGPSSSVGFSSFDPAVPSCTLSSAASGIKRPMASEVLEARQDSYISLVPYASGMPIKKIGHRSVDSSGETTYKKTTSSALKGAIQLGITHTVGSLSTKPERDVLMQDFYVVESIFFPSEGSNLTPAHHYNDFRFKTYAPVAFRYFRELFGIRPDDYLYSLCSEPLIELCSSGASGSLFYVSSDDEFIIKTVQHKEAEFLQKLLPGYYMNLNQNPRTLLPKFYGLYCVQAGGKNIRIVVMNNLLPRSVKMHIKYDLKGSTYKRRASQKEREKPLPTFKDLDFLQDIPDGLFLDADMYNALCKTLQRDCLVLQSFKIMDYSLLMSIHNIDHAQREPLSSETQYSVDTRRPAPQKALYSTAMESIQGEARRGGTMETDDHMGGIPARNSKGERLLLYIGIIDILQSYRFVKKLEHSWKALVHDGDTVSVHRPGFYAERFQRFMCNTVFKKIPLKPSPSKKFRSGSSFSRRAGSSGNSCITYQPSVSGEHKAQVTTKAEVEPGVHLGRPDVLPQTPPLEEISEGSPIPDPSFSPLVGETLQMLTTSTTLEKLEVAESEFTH
T25 sequence (P19525 whole entry): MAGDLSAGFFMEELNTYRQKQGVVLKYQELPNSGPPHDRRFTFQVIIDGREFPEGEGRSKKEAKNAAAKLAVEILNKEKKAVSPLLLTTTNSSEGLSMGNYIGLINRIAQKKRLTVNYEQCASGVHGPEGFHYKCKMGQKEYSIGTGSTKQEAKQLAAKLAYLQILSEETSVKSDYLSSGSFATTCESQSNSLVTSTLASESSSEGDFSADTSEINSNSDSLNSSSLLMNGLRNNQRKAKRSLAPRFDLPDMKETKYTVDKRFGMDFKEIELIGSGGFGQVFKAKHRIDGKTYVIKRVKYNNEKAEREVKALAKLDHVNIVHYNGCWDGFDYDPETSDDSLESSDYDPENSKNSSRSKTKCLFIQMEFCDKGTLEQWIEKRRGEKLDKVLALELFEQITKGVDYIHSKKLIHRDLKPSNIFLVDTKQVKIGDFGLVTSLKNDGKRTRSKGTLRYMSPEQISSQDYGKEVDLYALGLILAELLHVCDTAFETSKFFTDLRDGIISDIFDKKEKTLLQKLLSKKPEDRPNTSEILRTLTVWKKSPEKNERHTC
T24 sequence (O94806 whole entry): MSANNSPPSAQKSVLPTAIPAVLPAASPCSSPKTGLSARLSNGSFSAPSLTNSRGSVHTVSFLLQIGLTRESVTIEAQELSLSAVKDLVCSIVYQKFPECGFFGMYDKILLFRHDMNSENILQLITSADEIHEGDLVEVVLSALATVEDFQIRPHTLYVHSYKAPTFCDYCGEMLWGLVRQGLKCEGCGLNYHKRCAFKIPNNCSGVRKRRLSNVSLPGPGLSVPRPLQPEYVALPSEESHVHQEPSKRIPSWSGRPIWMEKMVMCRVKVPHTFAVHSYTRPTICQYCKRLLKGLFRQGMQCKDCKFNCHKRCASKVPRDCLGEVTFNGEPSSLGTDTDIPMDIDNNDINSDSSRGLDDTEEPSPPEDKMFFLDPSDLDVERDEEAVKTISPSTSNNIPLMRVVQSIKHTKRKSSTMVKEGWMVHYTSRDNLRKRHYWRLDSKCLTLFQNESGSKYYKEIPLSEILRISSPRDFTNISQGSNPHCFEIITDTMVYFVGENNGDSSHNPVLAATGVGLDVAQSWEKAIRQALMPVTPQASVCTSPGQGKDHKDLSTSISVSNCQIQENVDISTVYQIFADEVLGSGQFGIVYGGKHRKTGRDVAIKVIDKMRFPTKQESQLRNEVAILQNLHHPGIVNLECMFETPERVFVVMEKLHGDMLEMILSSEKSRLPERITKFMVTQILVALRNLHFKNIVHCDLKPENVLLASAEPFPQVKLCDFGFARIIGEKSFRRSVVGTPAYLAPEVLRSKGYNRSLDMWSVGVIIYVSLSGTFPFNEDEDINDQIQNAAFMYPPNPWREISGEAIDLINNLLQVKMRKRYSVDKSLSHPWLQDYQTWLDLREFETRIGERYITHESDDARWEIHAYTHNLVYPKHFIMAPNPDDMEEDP
T30 sequence (Q86UX6 whole entry): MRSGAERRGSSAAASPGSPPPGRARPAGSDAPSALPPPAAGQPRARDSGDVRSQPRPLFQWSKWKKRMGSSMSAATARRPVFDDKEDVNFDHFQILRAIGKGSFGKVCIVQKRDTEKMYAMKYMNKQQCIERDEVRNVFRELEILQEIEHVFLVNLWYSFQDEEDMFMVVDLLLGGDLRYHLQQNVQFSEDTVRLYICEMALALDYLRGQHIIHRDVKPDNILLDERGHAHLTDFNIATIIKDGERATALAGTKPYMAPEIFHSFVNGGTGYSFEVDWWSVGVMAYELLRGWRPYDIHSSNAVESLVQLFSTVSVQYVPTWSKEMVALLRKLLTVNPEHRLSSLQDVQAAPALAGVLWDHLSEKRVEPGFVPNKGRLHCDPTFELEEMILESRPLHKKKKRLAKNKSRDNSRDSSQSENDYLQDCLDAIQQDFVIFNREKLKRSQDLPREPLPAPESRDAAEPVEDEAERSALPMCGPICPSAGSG

COc1cc(OC)cc(N(CCN[C@H](C)CO)c2ccc3ncc(-c4cnn(C)c4)c(=O)n3c2)c1 [RK-019, (R)-7-((3,5-dimethoxyphenyl) (2-((1-hydroxypropan-2-yl)amino)ethyl)amino)-3-(1-methyl-1H-pyrazol-4-yl)-4H-pyrido [1,2-a]pyrimidin-4-one]
activity at 1 µM [1]: 105% | activity at 1 µM [2]: 86% | activity at 1 µM [3]: 116% | activity at 1 µM [4]: 83% | activity at 1 µM [5]: 108% | activity at 1 µM [6]: 113% | activity at 1 µM [7]: 60% | activity at 1 µM [8]: 45% | activity at 1 µM [9]: 109% | activity at 1 µM ([10]; FGFR4(h), read-out: Inhibition(%) @ 1 µM RK-019): 5% | inhibition at 1 µM ([10]; FGFR4, 1 µM, read-out: inhibition (hit in panel)): > 90% | activity at 1 µM [11]: 100% | activity at 1 µM [12]: 97% | activity at 1 µM [13]: 99% | activity at 1 µM [14]: 115% | activity at 1 µM [15]: 97% | activity at 1 µM [16]: 135% | activity at 1 µM [17]: 108% | activity at 1 µM [18]: 98% | activity at 1 µM [19]: 54% | activity at 1 µM [20]: 85% | activity at 1 µM [21]: 100% | activity at 1 µM [22]: 103% | activity at 1 µM [23]: 98% | activity at 1 µM [24]: 99% | activity at 1 µM [25]: 50% | activity at 1 µM [26]: 105% | activity at 1 µM [27]: 79% | activity at 1 µM [28]: 92% | activity at 1 µM [29]: 123% | activity at 1 µM [30]: 72% | activity at 1 µM [31]: 98% | activity at 1 µM [32]: 136% | activity at 1 µM [33]: 106% | activity at 1 µM [34]: 77% | activity at 1 µM [35]: 110% | activity at 1 µM [36]: 119% | activity at 1 µM [37]: 96%
